According to patent publication US5886022A, “Substituted cycloalkanecarboxylic acid derivatives as matrix metalloprotease inhibitors” (priority 1997, dated 1999):
Structures can show the parent of a compound that is named as a salt.

Assays:
Type in all cases: biochemical
[1] = biological target: T1, MMP-3 (recombinant truncated stromelysin) (Homo sapiens, UniProt P08254); test: Primary Thiopeptilide MMP-3 Inhibition Assay; conditions: for IC50: x (n): average IC50 of n separate determinations
T1 construct: made in house; host or cells: E. coli
Experimental: Reaction mixtures for inhibitor studies contained 1 mM Ac-Pro-Leu-Gly-S-Leu-Leu-Gly-o-ethyl thiopeptolide substrate dissolved in HEPES assay buffer pH 6.5, along with 0.5 mM 5,5'-dithio-bis-(nitrobenzoicacid), drug concentrations ranging from 0.5 nM to 5 μM and activated enzyme (10-100 ng) in a total volume of 130 μl. […] Enzyme mediated substrate hydrolysis was corrected for non-enzymatic hydrolysis of the substrate by the subtraction of values from control samples incubated in the absence of enzyme. Drug efficacy was reported as the percent inhibition of enzyme activity calculated as:
Enzyme: recombinant stromelysin expressed in E.coli and purified as described above. […] The protocols for the assay of compounds as stromelysin inhibitors was the same as that used for MMP-9 except that the assay buffer was 50 mM MES, pH 6.5 containing 150mM NaCl, 10 mM CaCl2, 0.005% Brij, and 1% DMSO.
All IC50 values are expressed as nM. […] When "x (n)" is shown, x is the erage IC50 value of n separate determinations.

[2] = biological target: T2, MMP-9 (Gelatinase-B, 92 kDa) (Homo sapiens, UniProt P14780); test: Thiopeptilide MMP-9 Inhibition Assay; conditions: for IC50: x (n): average IC50 of n separate determinations
T2 construct: from tissue; host or cells: human polymorphonuclear leukocytes from fresh whole blood (New York Blood Center), PMA-stimulated supernatant, purified
Experimental: MMP-9 was isolated modifying the previously described procedures of Hibbs et al (J. Biol. Chem., 260, 2493-2500, 1984) and Wilhelm et al (J. Biol. Chem., 264, 17213-17221, 1989). Briefly, polymorphonuclear leukocytes (PMN) preparations were isolated as described above from 3 or more units of freshly drawn whole blood obtained from the New York Blood Center (N.Y., N.Y.). Cells were resuspended in phosphate buffered saline (PBS) containing 100 ng/ml phorbol myristate acetate (PMA) in the presence of 50 mM di-isopropylfluorophospate (DFP), 1 μg/ml leupeptin and aprotinin, and 1 mg/ml catalase for 1 hr at 37° C. Supernatants were collected by centrifugation (300×g) and the samples were frozen at -70° C. All chromatographic methods were performed at 4° C. Thawed samples were concentrated 5-fold using an Amicon chamber equipped with a YM-10 membrane. The concentrate was pressure dialyzed against 0.02M Tris-HCl, 0.1M NaCl, 1 mM CaCl2, 1 μM ZnCl2, 0.001 % Brij-35, 0.02% sodium azide (NaN3), pH 7.5 and applied to DEAE ion exchange chromatography resin which was previously equilibrated with the same buffer at a flow rate of 0.4 ml/min. The column was extensively washed with the same buffer and gelatinase was eluted as 4 ml fractions from the column with 0.02M Tris-HCl, 0.5M NaCl, 1 mM CaCl2, 1 μM ZnCl2, 0.001% Brij-35, 0.02% NaN3, pH 7.5. Gelatinase containing fractions were observed by gelatin zymography (see below), loaded onto a gelatin agarose affinity resin and washed with the same buffer. Gelatinase activity was eluted at a flow rate of 1 ml/min from the column as 1 ml fractions with 0.02M Tris-HCl, 1M NaCl, 1 mM CaCl2, 1 μmM ZnCl2, 0.001% Brij-35, 0.02% NaN3, pH 7.5 containing 10% dimethyl sulfoxide (DMSO). The fractions containing gelatinase activity were pooled and dialyzed against 0.005M Tris-HCl, 5 mM NaCl, 0.5 mM CaCl2, 0.1 μM ZnCl2, 0.001% Brij-35, pH 7.4. The protein content associated with material was determined with a micro-BCA assay (Pierce, Rockford, Ill.), lyophilized and reconstituted to a desired working concentration (100 μg/ml).
Progelatinase (10 μg/ml) isolated from human PMNs (described above) was activated with 1 mM 4-aminophenylmercuric acetate (APMA) in 50 mM Tris-HCl, 200 mM NaCl, 5 mM CaCl2, 0.001% Brij-35, pH 7.6 at 37° C. for 16 hr. The activated enzyme was dialyzed against the above buffer to remove APMA. The thiopeptolide spectrophotometric ( Weingarten, H., Feder, J., Anal. Biochem., 147, 437-440, 1985) substrate hydrolysis assay was modified to a micro-assay format. Spectrophotometric analysis of MMP-9 activity required a 1000-fold dilution of activated MMP-9 (10 ng/ml, 0.14 nM) in assay buffer comprised of 50 mM 4-(2-hydroxyethyl)1-piperazine ethane sulfonic acid (HEPES), 0.15M NaCl, 10 mM CaCl2, 0.001% Brij-35, pH 6.5 between 100 and 1000-fold for enzyme assays. Reaction mixtures for inhibitor studies contained 1 mM Ac-Pro-Leu-Gly-S-Leu-Leu-Gly-o-ethyl thiopeptolide substrate dissolved in HEPES assay buffer pH 6.5, along with 0.5 mM 5,5'-dithio-bis-(nitrobenzoicacid), drug concentrations ranging from 0.5 nM to 5 μM and activated enzyme (10-100 ng) in a total volume of 130 μl. The hydrolysis of substrate was monitored at 405 nm using an automated plate reader (Molecular Devices, Menlo Park, Calif.). Enzyme mediated substrate hydrolysis was corrected for non-enzymatic hydrolysis of the substrate by the subtraction of values from control samples incubated in the absence of enzyme. Drug efficacy was reported as the percent inhibition of enzyme activity calculated as:
(Control Values-Treated Values)/Control Values×100
Two way analysis of variance was used to determine significance between individual test groups.
All IC50 values are expressed as nM. When "I=x %" is shown, x presents the % inhibition at 5 μM. When "x (n)" is shown, x is the erage IC50 value of n separate determinations.

MMP = MMP inhibitory activity

T1 sequence (P08254 100-274 limits assumed): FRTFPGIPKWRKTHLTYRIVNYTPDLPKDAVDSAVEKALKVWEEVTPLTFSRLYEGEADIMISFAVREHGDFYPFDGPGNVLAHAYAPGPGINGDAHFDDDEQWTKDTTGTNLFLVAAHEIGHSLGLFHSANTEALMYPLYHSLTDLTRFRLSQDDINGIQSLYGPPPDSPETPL
T2 sequence (P14780 107-707 limits assumed): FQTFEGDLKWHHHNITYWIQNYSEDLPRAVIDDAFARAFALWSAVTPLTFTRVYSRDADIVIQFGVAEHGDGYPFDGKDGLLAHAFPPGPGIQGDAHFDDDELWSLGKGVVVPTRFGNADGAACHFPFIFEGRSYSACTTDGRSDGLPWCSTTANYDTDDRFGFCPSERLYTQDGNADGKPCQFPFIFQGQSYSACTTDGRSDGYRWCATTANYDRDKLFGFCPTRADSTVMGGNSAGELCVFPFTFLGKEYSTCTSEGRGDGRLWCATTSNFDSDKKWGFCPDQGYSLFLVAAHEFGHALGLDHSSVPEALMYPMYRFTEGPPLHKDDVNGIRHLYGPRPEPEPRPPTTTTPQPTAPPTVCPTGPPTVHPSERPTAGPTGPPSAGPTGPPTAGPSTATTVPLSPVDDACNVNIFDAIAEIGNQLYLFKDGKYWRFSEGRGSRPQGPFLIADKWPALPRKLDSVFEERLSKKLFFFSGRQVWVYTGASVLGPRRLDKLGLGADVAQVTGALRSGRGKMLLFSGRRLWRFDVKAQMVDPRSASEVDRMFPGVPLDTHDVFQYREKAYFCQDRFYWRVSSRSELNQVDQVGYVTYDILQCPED

Row | Structure (SMILES) | IC50 [1] [µM] | IC50 [2] [µM] | other results
1 | CC(C)CC(CC(O)c1ccc(-c2ccc(Cl)cc2)cc1)C(=O)O (stereo not drawn) [Example 26, [1,1'-Biphenyl]-4-butanoic acid, 4'-chloro-γ-hydroxy-α-(2-methylpropyl)-] | 2.6 | 2.4 | –
2 | O=C(CC(Cc1ccccc1)C(=O)O)c1ccc(-c2ccc(Cl)cc2)cc1 (stereo not drawn) [Example 105, [1,1'-Biphenyl]-4-butanoic acid, 4'-chloro-γ-oxo-α-(phenylmethyl)-] | – | 0.9 | –
3 | COC(=O)c1ccccc1S[C@@H]1CC[C@H](C(=O)c2ccc(-c3ccc(Cl)cc3)cc2)[C@H]1C(=O)O (relative stereo) [Example 219, Benzoic acid, 2-[[2-carboxy-3-[(4'-chloro[1,1'-biphenyl]-4-yl)carbonyl]cyclopentyl]thio]-, 1-methyl ester, (1α,2β,3α)-] | 0.033 | 0.108 | –
4 | CCOc1ccc(-c2ccc(C(=O)[C@@H]3CC[C@@H](Sc4ccccc4)[C@H]3C(=O)O)cc2)cc1 (relative stereo) [Example 225, Cyclopentanecarboxylic acid, 2-[(4'-ethoxy[1,1'-biphenyl]-4-yl)carbonyl]-5-(phenylthio)-, (1α,2β,5α)-] | 0.066 | – | –
5 | CC(C)CC(CC(=O)c1ccc(-c2ccccc2)cc1)C(=O)O (stereo not drawn) [Example 13, [1,1'-Biphenyl]-4-butanoic acid, α-(2-methylpropyl)-γ-oxo-] | – | – | MMP inhibitory activity / potency in words (MMP): low potency
6 | O=C(C[C@@H](C[S+]([O-])c1ccccc1)C(=O)O)c1ccc(-c2ccc(Cl)cc2)cc1 (stereo partly drawn) [Example 126, [1,1'-Biphenyl]-4-butanoic acid, 4'-chloro-γ-oxo-α-[(phenylsulfmyl)methyl]-,stereoisomer] | – | – | MMP-3 Thiopeptilide % inhibition (I) ([1]; at 5 μM): 17%
7 | O=C(CC(CCCc1ccccc1)C(=O)O)c1ccc(-c2ccccc2)cc1 (stereo not drawn) [Example 91, [1,1'-Biphenyl]-4-butanoic acid, γ-oxo-α-(3-phenylpropyl)-] | – | 2.8 | MMP inhibitory activity / potency in words (MMP): low potency
8 | O=C(O)[C@@H]1CC[C@H]1C(=O)c1ccc(-c2ccc(Cl)cc2)cc1 (relative stereo) [Example 206, Cyclobutanecarboxylic acid, 2-[(4'-chloro[1,1'-biphenyl]-4-yl)carbonyl]-, trans-] | – | – | MMP inhibitory activity / potency in words (MMP): much more active
9 | Cc1cc(C)cc(SCC(CC(=O)c2ccc(-c3ccc(Cl)cc3)cc2)C(=O)O)c1 (stereo not drawn) [Example 165, [1,1'-Biphenyl]-4-butanoic acid, 4'-chloro-α-[[(3,5-dimethylphenyl)thio]methyl]-γ-oxo-] | 1.6 | – | –
10 | O=C(O)[C@@H]1[C@H](Sc2ccc(Cl)cc2)CC[C@H]1C(=O)c1ccc(-c2ccc(Cl)cc2)cc1 (relative stereo) [Example 223, Cyclopentanecarboxylic acid, 2-[(4'-chloro[1,1'-biphenyl]-4-yl)carbonyl]-5-[(4-chlorophenyl)thio]-, (1α,2β,5α)-] | 0.34 | 0.7 | –
11 | CCOc1ccc(-c2ccc(C(=O)[C@@H]3CC[C@H](Sc4ccccc4)[C@H]3C(=O)O)cc2)cc1 (relative stereo) [Example 224, Cyclopentanecarboxylic acid, 2-[(4'-ethoxy[1,1'-biphenyl]-4-yl)carbonyl]-5-(phenylthio)-, (1α,2β,5β)-] | 0.036 | – | –
12 | O=C(O)[C@@H]1[C@@H](Cc2ccccc2)CC[C@H]1C(=O)c1ccc(-c2ccc(Cl)cc2)cc1 (relative stereo) [Example 227, Cyclopentanecarboxylic acid, 2-[(4'-chloro [1,1'-biphenyl]-4-yl)carbonyl]-5-(phenylmethyl)-, (1α,2β,5β)-] | 0.14 | – | –
13 | O=C(CC(C(=O)O)N1CCSCC1)c1ccc(-c2ccc(Cl)cc2)cc1 (stereo not drawn) [Example 184, 4-Thiomorpholineacetic acid, α-[2-(4'-chloro[1,1'-biphenyl]-4-yl)-2-oxoethyl]-, hydrochloride] | – | – | inhibition at 5 µM ([1]; at 5 μM, read-out: MMP-3 Thiopeptilide % inhibition (I)): 19%
14 | CC(=O)SC(CC(=O)c1ccc(Oc2ccc(Cl)cc2)cc1)C(=O)O (stereo not drawn) [Example 183, Benzenebutanoic acid, α-(acetylthio)-4-(4-chlorophenoxy)-γ-oxo-, reference compound] | – | – | MMP inhibitory activity / potency in words (MMP): very low potency
15 | O=C(O)[C@@H]1[C@@H](C(=O)c2ccc(-c3ccc(Cl)cc3)cc2)CC[C@H]1Sc1ccccc1 (single isomer, unassigned) [Example 212, Cyclopentanecarboxylic acid, 2-[(4'-chloro[,1'-biphenyl]-4-yl)carbonyl]-5-(phenylthio)-, [1R-(1α,2β,5β)]-] | – | 0.64 | –
16 | CCOc1ccc(-c2ccc(C(=O)[C@@H]3CC[C@H](Cc4ccccc4)[C@H]3C(=O)O)cc2)cc1 (relative stereo) [Example 226, Cyclopentanecarboxylic acid, 2-[(4'-ethoxy[1,1'-biphenyl]-4-yl)carbonyl]-5-(phenylmethyl)-, (1α,2β,5β)-] | 0.098 | – | –
17 | O=C(CC(CCN1C(=O)c2ccccc2C1=O)C(=O)O)c1ccc(-c2ccc(Cl)cc2)cc1 (stereo not drawn) [Example 194, 2H-Isoindole-2-butanoic acid, α-[2-(4'-chloro[1,1'-biphenyl]-4-yl)-2-oxoethyl]-1,3-dihydro-1,3-dioxo-] | 0.038 | 0.0018 | –
18 | O=C(O)[C@@H]1[C@@H](Sc2ccc(Cl)cc2)CC[C@H]1C(=O)c1ccc(-c2ccc(Cl)cc2)cc1 (relative stereo) [Example 222, Cyclopentanecarboxylic acid, 2-[(4'-chloro [1,1'-biphenyl]-4-yl)carbonyl]-5-[(4-chlorophenyl)thio]-, (1α,2β,5β)-] | 0.08 | 0.032 | –
19 | CC(C)CC(CC(O)c1ccc(-c2ccc(Cl)cc2)cc1)C(=O)O (stereo not drawn) [Example 27, [1,1'-Biphenyl]-4-butanoic acid, 4'-chloro-γ-hydroxy-α-(2-methylpropyl)-] | 5 | – | –
20 | CCN(CC)CCC(CC(=O)c1ccc(-c2ccc(Cl)cc2)cc1)C(=O)O (stereo not drawn) [Example 191, [1,1'-Biphenyl]-4-butanoic acid, 4'-chloro-α-[2-(diethylamino)ethyl]-γ-oxo-,hydrochloride] | – | – | inhibition at 5 µM ([2]; at 5 μM, read-out: MMP-9 Thiopeptilide % inhibition (I)): 31%
